Entries after “also recorded” stand apart in the source; their conditions may differ.
Tests used:
RKO cells [1] = experiment: Live-cell calcium imaging of spontaneous calcium transients (GCaMP5); assay type: cell-based, human; conditions: for spontaneous calcium transients: FIG. 4C; for propagation of calcium transients: FIG. 5E
Method: (§1) 2 mg/ml neomycin was added to the cell culture medium 48 hrs after transfection to generate cell lines with stable GCaMP5 expression and removed one week prior to the initiation of experiment. Calcium transients were captured by live-cell imaging using a confocal microscope. Time lapse imaging was setup so that an image was captured every 0.5 s for 30 minutes, with an exposure time of 0.5 s. Calcium measurements were normalized to background fluorescence and the relative change in calcium (F(t)) over time was calculated by the formula: […]
where F0 was defined as the average intensity of the 20% lowest grey values in a region of interest (ROI), F was defined as the normalized grey values of ROI in time point t. Global synchronicity was calculated by cross correlation method in FluoroSNNAP (seas.upenn.edu/˜molneuro/fluorosnnap.html).

RKO cells [2] = experiment: Wound healing (scratch) assay with calcium wave imaging; assay type: cell-based, human; conditions: for display of primary and secondary calcium waves after scratching: FIG. 19E-F, verapamil 500 nM
Method: Wild-type or BCL9 knockout cells were grown in 6-well plates or Nunc™ Glass Bottom Dishes (150680, ThermoFisher®) for 24 hrs until cells reached 90% confluency. A 1 ml pipette tip was used to scratch the monolayer of cells across the center of each well. The cells were imaged at 0 and 24 hours after scratching. To investigate the effect of BCL9 on calcium waves (FIG. 5H), cells were cultured in glass-bottomed 96-well plates for 24 hrs until they reached 90% confluency. […] A 200 μl pipette tip was used to scratch the cell monolayer from the top left to the bottom right corner of the well. At various times after the scratch was made, cells were fixed with 4% paraformaldehyde for 15 minutes at room temperature. Immunofluorescence was subsequently used to identify the location of BCL9 (see immunofluorescence method section for more detail). The wound edge in the center of the well was defined as “adjacent” and the area in the top right corner was defined as “distance” (FIG. 4H).
as §1, with “To trace the calcium transient in real time, GCaMP5G (#31788, Addgene®) was transfected into wild-type or BCL9 knockout RKO and Colo320 cell lines. 2” for “2”, “Time lapse imaging was setup so that an image was captured every 0.5 s for 30 minutes, with an exposure time of 0.5 s.” left out
where F0 was defined as the average intensity of the 20% lowest grey values in a region of interest (ROI), F was defined as the normalized grey values of ROI in time point t. Global synchronicity was calculated by cross correlation method in FluoroSNNAP (seas.upenn.edu/˜molneuro/fluorosnnap.html). The frequency spectrum was calculated by fast Fourier transform (Uhlen, P. (2004). Sci. STKE 2004, p 115), the time difference between each sample is 0.5 s.

[3] = tested on: RGS4, CACNA2D1, ADRB1 mRNA; experiment: mRNA expression by RNA-seq / qRT-PCR; assay type: cell-based, human; conditions: both wild-type and BCL9 knockout RKO cells, qRT-PCR, FIG. 17A
Method: RNA was extracted from wild type and BCL9 knockout RKO cells with or without Poly I:C treatment (1 μg/ml) and subsequently purified using the TURBO DNA-free™ Kit (AM1907, invitrogen) to remove any residual DNA. An RNA library was prepared using the ribosome RNA removing method and sequenced with a 150 bp paired-end protocol in the Center for Cancer Computational Biology at the Dana Farber Cancer Institute (PRJNA554110). After quality control (QC) analysis was performed using fastQC, the first 10 bases were trimmed for each read. STAR software was used to map the readings to the human genome (hg19) and duplicates were removed using Picard. HTSeq was used to evaluate the gene expression levels by the count number for each gene and were subsequently annotated using the Ensemble database. Gene differential analysis was then applied to the expression profiling table using R package edgeR. For further analysis, the difference in exon usage between different conditions was calculated and R package DEXSeq was used to find differences between them.

RKO cells [4] = experiment: In vivo mouse xenograft model (RKO-luciferase, intraperitoneal)
Method: A total of 4×10^6 wild-type or BCL9 knockout RKO cells stably transduced with a reporter expressing Luciferase were injected intraperitoneally into CB17.Cg-PrkdcscidLystbg-J/Crl (Beige) mice (n=7 per group), and tumor burden was monitored by whole-body imaging using Xenogen system every week for 4 weeks, starting one day after injection of cells. After last imaging, all mice were euthanized and all tumor nodules identified in the peritoneal cavity were dissected and processed for histological and immunohistochemical analysis. To quantify β-catenin and Ki-67 stains serial consecutive sections were scanned using Vectra 2 Intelligent Slide Analysis system; percentage of positive cells (Ki-67, CD163, CD31, or αSMA) or areas (β-catenin) were assessed using inform Cell Analysis software (PerkinElmer®). P-values were calculated using unpaired Student's t-test. Propranolol hydrochloride (Millapore-Sigma®) was added to the drinking water at a concentration of 0.5 g/L on the injection day. Drug solution was renewed every 2 days.
TMA sections (from Oncology Pathology, Dana Farber Cancer Institute) were pre-heated at 65 degrees for 20 mins and then deparaffined by performing the following washing steps: xylene 3×5 mins, 100% ethanol 5 mins, 95% ethanol 5 mins, 75% ethanol 5 mins, 50% ethanol 5 mins, 25% ethanol 5 mins, and rinsed by cold water. Sections were subsequently heated in a microwave with antigen retrieval buffer (10 mM Tris Base, 1 mM EDTA Solution, 0.05% Tween 20, pH 9.0). Sections were washed twice with TBS plus 0.5% Triton X-100 (v/v) and blocked with 5% BSA for 1 hr at room temperature. Sections were incubated overnight with the following antibodies at 4 degrees: BCL9 (ab37305, Abcam®), FAP (AF3715, R&D), β-catenin (610154, BD Transduction Laboratories), SYP (PA0299, Lecia), PDGFB (ab23914, Abcam®), C3 (HPA003563, Millapore-Sigma®), RGS4 (sc-398348, Santa Cruz®), CD163 (182422, Abcam®), CD31 (77699, Cell Signaling®), αSMA (19245, Cell Signaling®), or Axin2 (#2151, Cell Signaling®). The sections were washed three times before incubation with secondary antibody for 2 hours at room temperature. The sections were then washed three times before signal amplification with HRP polymer or fluorescence. ImageJ2 software was used to carry out semi-quantitative analysis of the staining intensities, which ranged from 0 (negative) to 3 (strong staining). Subsequently the H-score was calculated using the following formula;

[5] = tested on: RKO, Colo320, SW620, LS174T, DLD-1 cells; experiment: Cell viability assay of CRC cell lines; conditions: Colo320, and SW620 more than LS174T or DLD-1 cells, increased concentrations, FIG. 20C

## O=C(O)CN(CCN(CC(=O)O)CC(=O)O)CC(=O)O [EDTA, ethylene diamine tetra-acetic acid]
RKO cells [1]; RKO cells
  spontaneous calcium transients: disappeared
RKO cells [2]
  display of primary and secondary calcium waves after scratching: disappeared; also recorded: blocked

## CC(C)(C)NCC(O)c1cc(O)cc(O)c1 (centres unmarked) [Terbutaline]
RKO cells [1]; BCL9 knockout RKO cells
  propagation of calcium transients: not
RKO cells [1]; wild-type RKO cells
  propagation of calcium transients: induced

## NCCc1ccc(O)c(O)c1 [dopamine]
[3]
  expression of RGS4 and CACNA2D1 mRNAs: increased

## CC(C)NCC(O)COc1cccc2ccccc12 (centres unmarked) [propranolol, 2-propanol, 1-[(1-methylethyl)amino]-3-(1-naphthalenyloxy)]
RKO cells [1]; RKO cells, FIG. 20B
  amplitude, frequency, and synchronicity of spontaneous calcium waves: reduced
RKO cells [2]; FIG. 5F
  calcium transient activation after scratching: inhibited calcium transients only in a subset of cells; also recorded: very few of them were activated
RKO cells [4]; RKO xenograft, FIG. 6H-I
  number of endothelial cells within tumor microenvironment (CD31): marked reduction
  number of mouse derived M2 macrophages within tumor microenvironment (CD163): marked reduction
  number of myofibroblast cells within tumor microenvironment (αSMA): not
RKO cells [4]; control vs treated groups
  expression of Axin2 in xenograft tumors: did not display differences
RKO cells [4]; three weeks after RKO cell injection, 0.5 g/L in drinking water, n=7
  mice that had died with extensive tumor burden: none
RKO cells [4]; three weeks post tumor injection, 0.5 g/L in drinking water
  tumor burden (whole-body imaging): disappeared in most
[5]
  viability of CRC cell lines: significantly reduced

## COc1ccc(CCN(C)CCCC(C#N)(c2ccc(OC)c(OC)c2)C(C)C)cc1OC (stereo not drawn) [verapamil, Benzeneacetonitrile, α-[3-[[2-(3,4-dimethoxyphenyl)ethyl]methylamino]propyl]-3,4-dimethoxy-α-(1-methylethyl)]
RKO cells [1]; RKO cells
  spontaneous calcium transients: disappeared
RKO cells [2]
  display of primary and secondary calcium waves after scratching: disappeared; also recorded: blocked
[5]
  viability of CRC cell lines: significantly reduced

Reference: US20220364184A1, “COMPOSITIONS AND METHODS FOR TREATMENT OF A POOR PROGNOSIS SUBTYPE OF COLORECTAL CANCER” (DANA-FARBER CANCER INSTITUTE, INC., priority 2019, published 2022)
